Among the test systems are UO-31 renal; HCT-116 colon; BT-549 breast; RPMI-8226 leukemia; A498 renal; MCF7 breast; SK-MEL-28 melanoma; HL-60(TB) leukemia; HCC-2998 colon; EKVX NSCLC.
Assay in all cases: NCI anticancer screen, dose series, 48 h

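Grown in 96-well plates, cells were treated for 48 hours with each compound at five concentrations. Insufficient inhibition: endpoint recorded as highest concentration tested. GI50 marks 50% less growth. TGI: concentration producing complete growth inhibition.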 Some results are limits rather than exact numbers.

In the case of `Cc1cc(Cl)ccc1NC(=O)NC(C)(C)COC(=O)Nc1cccc(Cl)c1`, the GI50 with UO-31 renal is 7.11 µM; in the assay on HCT-116 colon it was 6.3 µM; with BT-549 breast, 21.4 µM; in the assay with RPMI-8226 leukemia, 3.26 µM; in the assay with A498 renal it was 2.82 µM; in the assay on MCF7 breast, 2.49 µM. For the same molecule, the GI50 in the assay with SK-MEL-28 melanoma was 22.3 µM; with HL-60(TB) leukemia, 9.71 µM; in the assay on HCC-2998 colon, 11.3 µM. Moreover, the TGI in the assay with UO-31 renal is 80.7 µM; with HCT-116 colon, more than 100 µM; with BT-549 breast it was more than 100 µM; in the assay on RPMI-8226 leukemia, 15.3 µM; in the assay on A498 renal it was 21.8 µM; in the assay on MCF7 breast, 24.4 µM. For the same molecule, the values for the TGI in the assay on SK-MEL-28 melanoma, in the assay on HL-60(TB) leukemia and in the assay with HCC-2998 colon were more than 100 µM, 71.9 µM and more than 100 µM, respectively.
In the case of `CC(=O)NS(=O)(=O)c1ccc(-n2nc(-c3ccccc3)cc2C2=CC(=O)C=CC2=O)cc1`, the GI50 in the assay on UO-31 renal was more than 100 µM; in the assay on HCT-116 colon, 33.5 µM; with BT-549 breast, 48.9 µM; in the assay with EKVX NSCLC, more than 100 µM; in the assay on MCF7 breast, more than 100 µM; in the assay on SK-MEL-28 melanoma, more than 100 µM. For the same molecule, the GI50 in the assay on HL-60(TB) leukemia is more than 100 µM. The TGI in the assay with UO-31 renal, in the assay on HCT-116 colon, in the assay with BT-549 breast, in the assay with EKVX NSCLC, with MCF7 breast and with SK-MEL-28 melanoma was more than 100 µM throughout. This molecule also came in with a TGI in the assay on HL-60(TB) leukemia of more than 100 µM.
Consider `CC1(C)N=C(N)N=C(N)N1c1ccc(OCCCCNC(=O)c2ccc(S(=O)(=O)F)cc2)c(Cl)c1`, for which the GI50 in the assay with UO-31 renal was 48.8 µM; in the assay with HCT-116 colon, 3.53 µM; with BT-549 breast, more than 100 µM; in the assay on RPMI-8226 leukemia, 6.39 µM; with A498 renal it was more than 100 µM; with MCF7 breast it was 3.9 µM. In addition, the GI50 with SK-MEL-28 melanoma is 54.1 µM; with HL-60(TB) leukemia, 1.84 µM; in the assay on HCC-2998 colon it was 35 µM. Also, the TGI in the assay on UO-31 renal, in the assay on HCT-116 colon, with BT-549 breast, in the assay on RPMI-8226 leukemia, in the assay with A498 renal and in the assay with MCF7 breast was more than 100 µM throughout. In addition, the TGI in the assay on SK-MEL-28 melanoma, in the assay on HL-60(TB) leukemia and with HCC-2998 colon was more than 100 µM in each case.
For the molecule `CN(C)c1ccc(N=C(C#N)c2nc(N)nc(N3CCN(c4ccccc4)CC3)n2)cc1`, the GI50 with UO-31 renal was more than 18 µM; in the assay on HCT-116 colon, 17.4 µM; with BT-549 breast, 23.6 µM; in the assay with EKVX NSCLC, more than 30.1 µM; in the assay with RPMI-8226 leukemia, more than 26.8 µM; in the assay on MCF7 breast it was 21 µM. For the same molecule, the GI50 in the assay with SK-MEL-28 melanoma is 12.7 µM; in the assay with HL-60(TB) leukemia, more than 50 µM; in the assay with HCC-2998 colon it was 26.6 µM. The TGI in the assay with UO-31 renal is more than 32.5 µM; with HCT-116 colon, more than 50 µM; in the assay on BT-549 breast, more than 50 µM; with EKVX NSCLC it was more than 50 µM; with RPMI-8226 leukemia it was more than 50 µM; in the assay on MCF7 breast, 37.4 µM. In addition, the TGI in the assay on SK-MEL-28 melanoma, with HL-60(TB) leukemia and in the assay on HCC-2998 colon was more than 50 µM throughout.
Consider `COc1cc(CNC(=O)CCSc2nc3ccccc3c(=O)n2Cc2cc(OC)c(OC)c(OC)c2)cc(OC)c1OC`, for which the GI50 was 5.9 µM in the assay with UO-31 renal; 3.76 µM with HCT-116 colon; 4.9 µM with BT-549 breast; 4 µM in the assay with RPMI-8226 leukemia; 4.05 µM in the assay on A498 renal; 3.46 µM with MCF7 breast. Besides, the GI50 is 6.69 µM with SK-MEL-28 melanoma, 3.57 µM with HL-60(TB) leukemia and 13 µM with HCC-2998 colon. Also, the TGI is more than 100 µM in the assay on UO-31 renal; 13.3 µM in the assay on HCT-116 colon; 44.1 µM in the assay with BT-549 breast; 67.2 µM in the assay with RPMI-8226 leukemia; 21.1 µM in the assay on A498 renal; more than 100 µM in the assay with MCF7 breast. In addition, the TGI with SK-MEL-28 melanoma was more than 100 µM; with HL-60(TB) leukemia, more than 100 µM; in the assay on HCC-2998 colon, 94.6 µM.
With `Cc1ccc(/C=C2\CN(Cc3cn(CCNc4ccnc5cc(Cl)ccc45)nn3)C/C(=C\c3ccc(C)cc3)C2=O)cc1`, the GI50 in the assay with UO-31 renal was 1.44 µM; in the assay on HCT-116 colon it was 1.68 µM; in the assay with BT-549 breast, 1.89 µM; in the assay with RPMI-8226 leukemia, 1.82 µM; in the assay with A498 renal it was 0.85 µM; in the assay with MCF7 breast, 1.62 µM. Moreover, the GI50 is 1.74 µM in the assay with SK-MEL-28 melanoma, 2.23 µM with HL-60(TB) leukemia and 1.92 µM in the assay on HCC-2998 colon. Also, the TGI came to 2.85 µM in the assay with UO-31 renal; 3.27 µM in the assay with HCT-116 colon; 3.35 µM in the assay on BT-549 breast; 4.98 µM with RPMI-8226 leukemia; 2.2 µM with A498 renal; 3.46 µM with MCF7 breast. Also, the TGI in the assay with SK-MEL-28 melanoma was 3.26 µM; with HL-60(TB) leukemia, 5.26 µM; in the assay on HCC-2998 colon, 3.44 µM.
Consider `COc1cc(CC2CC(c3ccc4c(c3)OCO4)OC2=O)cc(OC)c1OC` (stereo unspecified), for which the TGI in the assay on UO-31 renal is 82.4 µM; with HCT-116 colon, more than 100 µM; in the assay on EKVX NSCLC, more than 100 µM; with RPMI-8226 leukemia it was more than 100 µM; in the assay on A498 renal, more than 100 µM; with MCF7 breast it was more than 100 µM. In addition, the TGI in the assay on SK-MEL-28 melanoma, in the assay with HL-60(TB) leukemia and in the assay with HCC-2998 colon was more than 100 µM each time.
Consider `CCN(CC)CCOc1nc2cc(OC)c(OC)cc2c2c1-c1ccc(OC)cc1C2=O`, for which the GI50 with UO-31 renal is 1.77 µM; with HCT-116 colon it was 1.35 µM; in the assay on BT-549 breast it was 15.7 µM; with EKVX NSCLC, 14.2 µM; in the assay with RPMI-8226 leukemia, 3.26 µM; in the assay with MCF7 breast, 0.697 µM. For the same molecule, the GI50 in the assay on SK-MEL-28 melanoma is 21.5 µM; with HL-60(TB) leukemia, 13.4 µM; in the assay with HCC-2998 colon it was 14.3 µM. Also, the TGI was determined as 14.2 µM in the assay with UO-31 renal; 2.63 µM with HCT-116 colon; 29.5 µM in the assay on BT-549 breast; 28.1 µM in the assay with EKVX NSCLC; 19.6 µM in the assay with RPMI-8226 leukemia; 17.3 µM in the assay on MCF7 breast. For the same molecule, the TGI was determined as 36.4 µM in the assay on SK-MEL-28 melanoma, 34.6 µM with HL-60(TB) leukemia and 27.6 µM in the assay on HCC-2998 colon.
